# Laboratory results as given in patent US20230348378A1, “SMALL MOLECULE ALBUMIN BINDERS” (Oregon Health & Science University, priority 2020, published 2023).
# Starred links: 1 amine or outer side, 2 acyl side, 3 side chain; linkers in the order of their positions; H or OH if unused. Positions of bridges follow the written chain, without caps; N, C: chain ends. Non-standard residues stand in square brackets, D forms with d. Residues, ends and D or L forms follow the SMILES beside them. *: point of attachment. DOTA = O=C(O)CN1CCN(CC(=O)O)CCN(CC(=O)*)CCN(CC(=O)O)CC1; NH(CH2CH2O)4CH2CO = O=C(COCCOCCOCCOCCN[*:1])[*:2]; X2 = O=C(CCCc1ccc(C(F)(F)F)c(F)c1)*; X1 = O=C(CCCc1ccc(C(F)(F)F)cc1)*
# Columns and labels:
# PSMA+ PC3pip xenograft = test system: PSMA+ PC3pip xenograft; design: species or system mice; conditions: mouse, in vivo
# Procedure: Biodistribution studies were performed 2 weeks after the tumor inoculation, when the size of tumor reached 5 mm. ^111In-labeled albumin binder-radioligand conjugates (1.85 MBq, 100 μL) were then administered via a lateral tail vein. The mice were sacrificed at 1, 2, 16, 24, or 48 h post-injections. Selected organs were collected and weighed, and the radioactivity was measured by the γ counter (Packard, Cobra E5003). The results were calculated as percentage of the injected dose per gram of mass (% ID/g).
# BxPC3 xenograft = experiment: Biodistribution in mice bearing BxPC3 xenograft; format: in vivo
# [1] = target: human serum albumin (HSA) (Homo sapiens, UniProt P02768); experiment: In vitro albumin protein binding ultrafiltration assay; conditions: for change of albumin binding affinity versus the corresponding ABX conjugate: D-ABCF3 vs ABCF3, hABCF3P vs ABCF3P, hABF3P vs ABF3P, εABCF3 vs ABCF3
# Procedure: Following the published protocol, ultrafiltration assay was performed to assess albumin-binding properties of ^111In or ^64Cu labeled albumin binder-radioligand conjugates. ^111In or ^64Cu radiolabeling was conducted in NH4OAc (0.2 M, pH=7.0) buffer at 80° C. for 30 min with a specific activity of 3.7 MBq/nmol (100 μCi/nmol). The resulting albumin binder-radioligand conjugate (10 μL, 10 μM) was mixed with 100 μL human serum albumin (HSA, 1.0 mM in PBS 1×) and 90 μL PBS, followed by shaking gently at 37° C. for 30 min. After the incubation, 80 μL of each solution was loaded on the Zeba™ spin desalting column (7K MWCO) and centrifuged at 1500 g for 2 min. Radioactivity in 20 μL of each filtration and 10 μL mixture (before filtration) were quantified by the γ counter. The filtration rate of each sample was calculated as filtered counts/(mixture counts×2)×100%, all obtained results were then normalized by setting standard ABCF3 moiety as 74.4%. for the comparison purpose. The experiment was performed with triplicates. For working curve, different final concentrations of HSA varied from 10-1500 μM were used, followed the same protocol.
# [2] = in vivo evaluation of FRGD without albumin binder
# [3] = filtration assay, [HSA]=500 μM, [tracers]=0.5 μM
# Chain of human serum albumin (HSA) (P02768 25-609): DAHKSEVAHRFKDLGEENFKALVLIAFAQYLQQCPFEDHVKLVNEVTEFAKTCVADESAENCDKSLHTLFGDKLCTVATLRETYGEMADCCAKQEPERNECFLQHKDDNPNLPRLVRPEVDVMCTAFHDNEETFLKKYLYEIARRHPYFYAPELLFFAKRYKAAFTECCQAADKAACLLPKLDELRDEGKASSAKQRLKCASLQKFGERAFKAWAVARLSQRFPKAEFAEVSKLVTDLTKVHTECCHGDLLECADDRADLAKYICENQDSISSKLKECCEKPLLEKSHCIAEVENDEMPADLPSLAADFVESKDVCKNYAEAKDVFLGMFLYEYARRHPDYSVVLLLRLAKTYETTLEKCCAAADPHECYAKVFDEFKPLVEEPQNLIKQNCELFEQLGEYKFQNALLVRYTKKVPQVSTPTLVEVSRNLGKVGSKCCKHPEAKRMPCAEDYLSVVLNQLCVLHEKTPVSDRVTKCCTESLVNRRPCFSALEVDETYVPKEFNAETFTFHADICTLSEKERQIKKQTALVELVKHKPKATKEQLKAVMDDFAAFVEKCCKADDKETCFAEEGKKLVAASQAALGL
structure (smiles),measurement,setting,value
"O=C(O)CC[C@H](NC(=O)N[C@@H](CCCCNC(=O)[C@H](Cc1ccc2ccccc2c1)NC(=O)[C@H]1CC[C@H](CNC(=O)[C@H](CCCCNC(=O)CN2CCN(CC(=O)O)CCN(CC(=O)O)CCN(CC(=O)O)CC2)NC(=O)CCC(=O)N[C@@H](CCCCNC(=O)CCCc2ccc(C(F)(F)F)cc2)C(=O)O)CC1)C(=O)O)C(=O)O (64Cu complex, metal not drawn) [PSMA617-ABCF3]",increase of specific tumor uptake compared to PSMA617,PSMA+ PC3pip xenograft,> 2 ×
same,tumor/nontumor ratios compared to PSMA617,PSMA+ PC3pip xenograft,enhance tumor/nontumor ratios
"CC(C)C[C@@H]1NC(=O)[C@H](CC(=O)O)NC(=O)CNC(=O)[C@H](CCCNC(=N)N)NC(=O)[C@H](Cc2ccccc2)NC(=O)[C@H](CCCCN)N(C)C(=O)[C@H]2CCCN2C(=O)[C@H](Cc2ccccc2)NC(=O)[C@H](C)NC1=O (111In complex, metal not drawn) [FRGD]",kidney uptake,"BxPC3 xenograft; 111In labeled, without ABCF3",very high
same,non-tumor uptakes,BxPC3 xenograft; [2],high non-tumor uptakes
same,tumor uptake,BxPC3 xenograft; [2],relatively low tumor uptake
[N-]=[N+]=NCCCC[C@H](NC(=O)CN1CCC(CC(=O)O)CCN(CC(=O)O)CCN(CC(=O)O)CC1)C(=O)NCCCCCC(=O)N[C@@H](CCCCNC(=O)CCCc1ccc(C(F)(F)F)cc1)C(=O)O (some centres unmarked) [ABCF3],filtration percentage (normalized),"[1]; 64Cu-labeled DOTA-albumin binder conjugate, [HSA]=500 μM, [tracers]=0.5 μM, value set as normalisation standard (average)",75%
[N-]=[N+]=NCCCC[C@H](NC(=O)CN1CCC(CC(=O)O)CCN(CC(=O)O)CCN(CC(=O)O)CC1)C(=O)NCCCCCC(=O)N[C@H](CCCCNC(=O)CCCc1ccc(C(F)(F)F)cc1)C(=O)O (stereo partly drawn) [D-ABCF3],change of albumin binding affinity versus the corresponding ABX conjugate,[1]; [3],slightly increased binding affinity
CC(C)C[C@@H]1NC(=O)[C@H](CC(=O)O)NC(=O)CNC(=O)[C@H](CCCNC(=N)N)NC(=O)CNC(=O)[C@H]([C@@H](C)O)NC(=O)[C@@H](NC(=O)[C@H](CCCNC(=N)N)NC(=O)CNC(=O)CN2CCN(CC(=O)O)CCN(CC(=O)O)CCN(CC(=O)O)CC2)CSSC[C@@H](C(=O)N[C@@H](Cc2ccc(O)cc2)C(=O)N2CCC[C@H]2C(=O)N[C@@H](CC(=O)O)C(=O)NCCOCCOCCOCCOCC(=O)N[C@@H](CCCCNC(=O)CCCc2ccc(C(F)(F)F)c(F)c2)C(=O)O)NC(=O)[C@H](CC(C)C)NC(=O)[C@H](CCCNC(=N)N)NC(=O)CNC1=O [SFLAP3-ABCF3-3F] ({DOTA}-GRCTGRGDLGRLCYPD[NH(CH2CH2O)4CH2CO]K(X2)-OH; disulfide 3-13),"in vivo performance (biodistribution, tumor/nontumor ratios)","BxPC3 xenograft; SFLAP3 conjugates with various ABX, 24 h",best in vivo performance among all the tested ABX
CC(C)C[C@@H]1NC(=O)[C@H](CC(=O)O)NC(=O)CNC(=O)[C@H](CCCNC(=N)N)NC(=O)CNC(=O)[C@H]([C@@H](C)O)NC(=O)[C@@H](NC(=O)[C@H](CCCNC(=N)N)NC(=O)CNC(=O)CN2CCN(CC(=O)O)CCN(CC(=O)O)CCN(CC(=O)O)CC2)CSSC[C@@H](C(=O)N[C@@H](Cc2ccc(O)cc2)C(=O)N2CCC[C@H]2C(=O)N[C@@H](CC(=O)O)C(=O)NCCOCCOCCOCCOCC(=O)N[C@@H](CCCCNC(=O)CCCc2ccc(C(F)(F)F)cc2)C(=O)O)NC(=O)[C@H](CC(C)C)NC(=O)[C@H](CCCNC(=N)N)NC(=O)CNC1=O [SFLAP3-ABCF3] ({DOTA}-GRCTGRGDLGRLCYPD[NH(CH2CH2O)4CH2CO]K(X1)-OH; disulfide 3-13),percentage bound to albumin protein,"[1]; 64Cu-labeled, filtration assay, FIG. 6",~75%
[N-]=[N+]=NCCCC[C@H](NC(=O)CN1CCN(CC(=O)O)CCN(CC(=O)O)CCN(CC(=O)O)CC1)C(=O)NCCCCCC(=O)N[C@H](CCCCCNC(=O)CCc1cc(F)c(F)c(F)c1)C(=O)O [hABF3P],change of albumin binding affinity versus the corresponding ABX conjugate,[1]; [3],slightly increased binding affinity
[N-]=[N+]=NCCCC[C@H](NC(=O)CN1CCN(CC(=O)O)CCN(CC(=O)O)CCN(CC(=O)O)CC1)C(=O)NCC(=O)NCCCC[C@H](NCCC(=O)NCCCCc1ccc(C(F)(F)F)cc1)C(=O)O [εABCF3],change of albumin binding affinity versus the corresponding ABX conjugate,[1]; [3],significantly decrease its binding affinity
